Where two headings read alike, the source gives them in different places.
Experiments:
[1] = system: primary hepatocytes (PHGH); assay: cellular survival of PHGH, Trypan Blue exclusion; type: cell-based, mice; conditions: highest concentrations of the toxicant; Trypan Blue; FIG. 1 graph B
Source text: This different behaviour is explained by the greater sensitivity to the toxicant of the PHGH with respect to the MMH/GH5 as shown by analysis of the cellular vitality performed with the Trypan Blue method (FIG. 1, graph B). […] Therefore the greater resistance of the cells MMH/GH/5 to the toxicants constitutes another evident advantage as it permits the exclusion of false negatives in which the non-release of hGH, due to cellular death, is interpreted as non-toxicity of the compound. When the supernatant is collected after 5 hours of treatment followed by 24 hours of culture with normal medium (FIG. 1 graph C) the PHGHs respond, at the lowest concentrations of the two toxicants, with high levels of secretion of hGH and, at the highest concentrations, with low levels of secretion of hGH (lower cellular survival, graph D).
(§1) In table 3 the cellular survival percentage was determined with the Trypan Blue exclusion method. […]
(§2) For treatment, the two types of cells were treated with different concentrations of the compounds for 1 or 5 hours and then with normal medium for a further 24 hours. The effects of the treatment were assessed as described previously for the inorganic toxicants.

[2] = system: single transgenic HPS70/hGH primary hepatocytes (PHGH); assay: toxicity test, hGH secretion by primary transgenic hepatocytes (PHGH); type: cell-based, mice; conditions: PHGH; 10^-5, 5x10^-5, 10^-4 M; 5 h; FIG. 1 graph A
Source text: On the basis of the results illustrated, for the further analyses, clone no. […] The response to the toxic stress of the clone MMH/GH5 was then compared with the one obtained in single transgenic HPS70/hGH primary hepatocytes (PHGH). A representative sample of the cell line derived from said clone MMH/GH5 was deposited in accordance with and for the purposes of the Treaty of Budapest on the international recognition of deposit of micro-organisms for the purposes of the patents procedure with the AID “Centro di Biotecnologie Avanzate (CBA), Interlab Cell Line Collection (ICLC)” Servizio Biotecnologie, Largo R. Benzi, 10, 16132 Genova, Italy, on Jul. 30, 2002, where it was given identification number PD 02007.
as §1, §2

MMH/GH5 cells (Clone 5) = conditions: for hGH secreted, 5 h / hGH secreted, 5 + 24 h: Clone 5; for hGH secreted, 5 h: 5 h treatment; for hGH secreted, 5 + 24 h: 5 h treatment + 24 h recovery
MMH/GH cells, Clone 2 = conditions: for hGH secreted, 5 h: 5 h treatment; for hGH secreted, 5 + 24 h: 5 h treatment + 24 h recovery
MMH/GH cells, Clone 11 = conditions: Clone 11; for hGH secreted, 5 h: 5 h treatment; for hGH secreted, 5 + 24 h: 5 h treatment + 24 h recovery
MMH/GH cells, Clone 4 = conditions: Clone 4; for hGH secreted, 5 h: 5 h treatment; for hGH secreted, 5 + 24 h: 5 h treatment + 24 h recovery
MMH/GH cells, Clone 9 = conditions: for hGH secreted, 5 h: 5 h treatment; for hGH secreted, 5 + 24 h: 5 h treatment + 24 h recovery
MMH/GH cells, Clone 10 = conditions: for hGH secreted, 5 h: 5 h treatment; for hGH secreted, 5 + 24 h: 5 h treatment + 24 h recovery

Compound: [Cl][Cd][Cl] [CdCl2]
- survival of the PHGHs [1]: practically nil
- release of hGH in the culture medium in relation to concentration of the toxicant [2]: inversely proportional
- hGH secreted, 5 h (MMH/GH5 cells (Clone 5); 5x10^-5 M (As2/Cd2)): 50
- hGH secreted, 5 + 24 h (MMH/GH5 cells (Clone 5); 5x10^-5 M (As2/Cd2)): 40
- hGH secreted, 5 h (MMH/GH5 cells (Clone 5); 10^-4 M (As3/Cd3)): 90
- hGH secreted, 5 + 24 h (MMH/GH5 cells (Clone 5); 10^-4 M (As3/Cd3)): 20
- hGH secreted, 5 h (MMH/GH5 cells (Clone 5); 10^-5 M (As1/Cd1)): 25
- hGH secreted, 5 + 24 h (MMH/GH5 cells (Clone 5); 10^-5 M (As1/Cd1)): 25
- release of hGH in the culture medium in relation to concentration of the toxicant (MMH/GH5 cells (Clone 5); MMH/GH5, 10^-5, 5x10^-5, 10^-4 M, 5 h, FIG. 1 graph A): directly proportional to the concentration of the toxicant
- hGH secreted, 5 h (MMH/GH cells, Clone 2; 5x10^-5 M (As2/Cd2)): 0
- hGH secreted, 5 + 24 h (MMH/GH cells, Clone 2; 5x10^-5 M (As2/Cd2)): 4
- hGH secreted, 5 h (MMH/GH cells, Clone 2; 10^-4 M (As3/Cd3)): 0
- hGH secreted, 5 + 24 h (MMH/GH cells, Clone 2; 10^-4 M (As3/Cd3)): 0
- hGH secreted, 5 h (MMH/GH cells, Clone 2; 10^-5 M (As1/Cd1)): 0
- hGH secreted, 5 + 24 h (MMH/GH cells, Clone 2; 10^-5 M (As1/Cd1)): 0
- hGH secreted, 5 h (MMH/GH cells, Clone 11; 5x10^-5 M (As2/Cd2)): 0
- hGH secreted, 5 + 24 h (MMH/GH cells, Clone 11; 5x10^-5 M (As2/Cd2)): 0
- hGH secreted, 5 h (MMH/GH cells, Clone 11; 10^-4 M (As3/Cd3)): 0
- hGH secreted, 5 + 24 h (MMH/GH cells, Clone 11; 10^-4 M (As3/Cd3)): 0
- hGH secreted, 5 h (MMH/GH cells, Clone 11; 10^-5 M (As1/Cd1)): 40
- hGH secreted, 5 + 24 h (MMH/GH cells, Clone 11; 10^-5 M (As1/Cd1)): 0
- hGH secreted, 5 h (MMH/GH cells, Clone 4; 5x10^-5 M (As2/Cd2)): 0
- hGH secreted, 5 + 24 h (MMH/GH cells, Clone 4; 5x10^-5 M (As2/Cd2)): 0
- hGH secreted, 5 h (MMH/GH cells, Clone 4; 10^-4 M (As3/Cd3)): 0
- hGH secreted, 5 + 24 h (MMH/GH cells, Clone 4; 10^-4 M (As3/Cd3)): 0
- hGH secreted, 5 h (MMH/GH cells, Clone 4; 10^-5 M (As1/Cd1)): 0
- hGH secreted, 5 + 24 h (MMH/GH cells, Clone 4; 10^-5 M (As1/Cd1)): 0
- hGH secreted, 5 h (MMH/GH cells, Clone 9; 5x10^-5 M (As2/Cd2)): 200
- hGH secreted, 5 + 24 h (MMH/GH cells, Clone 9; 5x10^-5 M (As2/Cd2)): 0
- hGH secreted, 5 h (MMH/GH cells, Clone 9; 10^-4 M (As3/Cd3)): 5
- hGH secreted, 5 + 24 h (MMH/GH cells, Clone 9; 10^-4 M (As3/Cd3)): 0
- hGH secreted, 5 h (MMH/GH cells, Clone 9; 10^-5 M (As1/Cd1)): 0
- hGH secreted, 5 + 24 h (MMH/GH cells, Clone 9; 10^-5 M (As1/Cd1)): 0
- hGH secreted, 5 h (MMH/GH cells, Clone 10; 5x10^-5 M (As2/Cd2)): 0
- hGH secreted, 5 + 24 h (MMH/GH cells, Clone 10; 5x10^-5 M (As2/Cd2)): 12
- hGH secreted, 5 h (MMH/GH cells, Clone 10; 10^-4 M (As3/Cd3)): 0
- hGH secreted, 5 + 24 h (MMH/GH cells, Clone 10; 10^-4 M (As3/Cd3)): 7
- hGH secreted, 5 h (MMH/GH cells, Clone 10; 10^-5 M (As1/Cd1)): 0
- hGH secreted, 5 + 24 h (MMH/GH cells, Clone 10; 10^-5 M (As1/Cd1)): 25
